We go through eleven compounds from ChEMBL document CHEMBL3244287, “Adrenergic agents. 4. Substituted phenoxypropanolamine derivatives as potential beta-adrenergic agonists” (J Med Chem, 1977).

Calls of active or inactive are those of the source. The rule behind the calls is not given here. Bounds are passed on as bounds.

The species entered for test [1] is Cavia porcellus. In words: Selectivity ratio of ED50 for beta-2 adrenergic receptor in guinea pig trachea over ED50 for beta-1 adrenergic receptor in guinea pig atria.
The target in test [2] is Beta-1 adrenergic receptor (Cavia porcellus) (UniProt B0FL73).
Test [3] has as its target Beta-2 adrenergic receptor (Cavia porcellus) (UniProt Q8K4Z4). Conditions: Trachea.
Test [4] concerns the target Beta-1 adrenergic receptor (Cavia porcellus) (UniProt B0FL73). In words: Agonist activity at beta-1 adrenergic receptor in guinea pig atria assessed as increase in rate of contraction of spontaneously beating right atria at 9 x 10^-5 M.
For test [5], the target named is Beta-2 adrenergic receptor (Cavia porcellus) (UniProt Q8K4Z4). Description: Intrinsic activity at beta-2 adrenergic receptor in guinea pig trachea assessed as relaxation of spontaneously contracted muscle relative to papaverine.
Test [6] deals with Beta-1 adrenergic receptor (Cavia porcellus) (UniProt B0FL73). In words: Antagonist activity at beta-1 adrenergic receptor in guinea pig atria assessed as inhibition of isoproterenol-induced increase in rate of contraction of spontaneously beating right atria at 6.3 x 10^-5 M.
For test [7] the target is unchanged. In words: Agonist activity at beta-1 adrenergic receptor in guinea pig atria assessed as increase in rate of contraction of spontaneously beating right atria at 4.8 x 10^-5 M.
Test [8] has the same target. In words: Antagonist activity at beta-1 adrenergic receptor in guinea pig atria assessed as inhibition of isoproterenol-induced increase in rate of contraction of spontaneously beating right atria at 1 x 10^-3 M.
The target of test [9] is Beta-2 adrenergic receptor (Cavia porcellus) (UniProt Q8K4Z4). In words: Agonist activity at beta-2 adrenergic receptor in guinea pig trachea assessed as relaxation of spontaneously contracted muscle at 4.8 x 10^-5 M. The arrangement: scale not given: the % may be the effect or the level left.
The target of test [10] is Beta-1 adrenergic receptor (Cavia porcellus) (UniProt B0FL73). Description: Antagonist activity at beta-1 adrenergic receptor in guinea pig atria assessed as inhibition of isoproterenol-induced increase in rate of contraction of spontaneously beating right atria at 3 x 10^-7 M.
Test [11] shares this target. Description: Antagonist activity at beta-1 adrenergic receptor in guinea pig atria assessed as inhibition of isoproterenol-induced increase in rate of contraction of spontaneously beating right atria at 8.4 x 10^-5 M.
The target is the same in test [12]. In words: Ratio of isoproterenol ED50 to compound ED50 for beta-1 adrenergic receptor in guinea pig atria assessed as increase in rate of contraction of spontaneously beating right atria.
For test [13] the target is unchanged. Description: Ratio of N-tert-butyl-norepinephrine ED50 to compound ED50 for beta-1 adrenergic receptor in guinea pig atria assessed as increase in rate of contraction of spontaneously beating right atria.
For test [14], the system named is Canis familiaris. In words: Reduction of diastolic blood pressure in iv dosed anesthetized dog. Conditions: Canis lupus familiaris; Artery. Format: functional, organism-based.
Test [15] has as its system Canis familiaris. In words: Reduction of diastolic blood pressure in iv dosed anesthetized dog in presence of 2 mg/kg of propranolol, iv. Format: functional, organism-based. Details: dose 2 mg/kg. The following applies: Canis lupus familiaris; Artery.
Test [16] deals with Canis familiaris. In words: Reduction of heart rate in iv dosed anesthetized dog in presence of 2 mg/kg of propranolol, iv. Format: functional, organism-based. The arrangement: dose 2 mg/kg. Conditions: Canis lupus familiaris.
The test system of test [17] is Beta-2 adrenergic receptor (Cavia porcellus). Description: Ratio of isoproterenol ED50 to compound ED50 for beta-2 adrenergic receptor in guinea pig trachea assessed as relaxation of spontaneously contracted muscle.

Beta-2 adrenergic receptor (Cavia porcellus) (UniProt Q8K4Z4), sequence (Q8K4Z4 whole entry, looked up): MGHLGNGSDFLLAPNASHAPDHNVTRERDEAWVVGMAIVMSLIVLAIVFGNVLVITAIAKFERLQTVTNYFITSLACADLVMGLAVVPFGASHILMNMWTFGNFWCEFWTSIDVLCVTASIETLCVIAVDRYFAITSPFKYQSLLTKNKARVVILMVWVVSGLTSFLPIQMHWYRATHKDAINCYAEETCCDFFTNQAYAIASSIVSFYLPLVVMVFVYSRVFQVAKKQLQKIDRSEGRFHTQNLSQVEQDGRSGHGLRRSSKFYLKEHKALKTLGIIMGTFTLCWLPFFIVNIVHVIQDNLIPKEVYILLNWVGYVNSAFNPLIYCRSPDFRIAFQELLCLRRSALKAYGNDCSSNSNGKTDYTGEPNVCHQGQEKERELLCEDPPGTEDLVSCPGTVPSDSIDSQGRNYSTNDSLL
Beta-1 adrenergic receptor (Cavia porcellus), sequence (B0FL73 1-467): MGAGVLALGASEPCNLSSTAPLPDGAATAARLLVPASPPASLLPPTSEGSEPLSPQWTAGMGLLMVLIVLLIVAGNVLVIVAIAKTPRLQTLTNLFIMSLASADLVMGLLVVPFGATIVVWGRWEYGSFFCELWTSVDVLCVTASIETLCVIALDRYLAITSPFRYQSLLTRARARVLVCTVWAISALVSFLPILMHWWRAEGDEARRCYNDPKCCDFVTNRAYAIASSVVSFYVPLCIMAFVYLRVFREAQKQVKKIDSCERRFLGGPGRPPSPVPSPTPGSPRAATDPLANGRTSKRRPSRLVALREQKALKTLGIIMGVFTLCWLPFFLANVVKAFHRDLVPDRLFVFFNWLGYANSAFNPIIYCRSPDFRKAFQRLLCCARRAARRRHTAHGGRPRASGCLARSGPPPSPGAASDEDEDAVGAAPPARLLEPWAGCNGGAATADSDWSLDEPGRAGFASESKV

For the compound `CC(C)NCC(O)c1ccc(O)cc1` (centres undefined), the Ratio ED50 in test [1] was determined as 0.7. In addition, the ED25 in test [2] came out at 7.7 ×10⁻⁸ M. For the same compound, the ED50 in [3] is 1.1 ×10⁻⁷ M.

For `CC(C)(C)NCC(O)COc1ccc(NS(C)(=O)=O)c(O)c1` (centres undefined), in test [4], the Activity is 19%. Besides, in test [5], the Intrinsic activity amounted to 0.8. Moreover, the Ratio ED50 in test [1] was over 27. The same compound yielded an ED25 in test [2] of 9 ×10⁻⁵ M. The same compound displayed an ED50 in [3] of 3400 nM.

A word on the inhibition: it is the change of the read-out against control, counted positive when it falls. For the compound `CC(C)(C)NCC(O)COc1cccc(O)c1` (centres undefined), in test [6], the inhibition entry is “Active”. Moreover, the Ratio ED50 in test [1] stood at 26. Also, the ED25 in test [2] worked out at 5.4 ×10⁻⁷ M. The compound also displayed an ED50 in test [3] of 2.1 ×10⁻⁸ M.

Regarding `CC(C)(C)NCC(O)COc1ccc(CS(C)(=O)=O)cc1` (centres undefined), the Activity in test [7] and in test [9] was 0% each time. Also, in test [8], the inhibition was 78%. In test [2], the ED25 was 4.8 ×10⁻⁵ M. The ED50 in [3] amounted to 4.8 ×10⁻⁵ M.

For `CC(C)(C)NC[C@H](O)c1ccc(O)c(O)c1`, in test [1], the Ratio ED50 is 5.5. The same compound returned an ED25 in [2] of 7.1 nM. The same compound yielded an ED50 in [3] of 1.3 nM.

With `CC(C)(C)NCC(O)COc1ccc(O)c(NS(C)(=O)=O)c1` (centres undefined), the inhibition in test [10] stood at 44%. In test [1], the Ratio ED50 worked out at 182. For the same compound, in test [2], the ED25 turned out to be 1200 nM. The compound further gave an ED50 in [3] of 6.6 nM.

Take `CC(C)NCC(O)c1cccc(O)c1` (centres undefined): in test [1], the Ratio ED50 is 0.8. The compound further gave an ED25 in [2] of 3.7 ×10⁻⁸ M. This compound also registered an ED50 in test [3] of 4.5 ×10⁻⁸ M.

Consider `CC(C)NCC(O)c1ccc(O)c(O)c1` (centres undefined), for which the ED50 in [3] came to 7.1 nM.

With `CC(C)NCC(O)c1ccc(O)c(NS(C)(=O)=O)c1` (centres undefined), in test [1], the Ratio ED50 stood at 2.9. The ED25 in test [2] is 7.6 ×10⁻⁸ M. This compound came in with an ED50 in [3] of 2.6 ×10⁻⁸ M.

With `CC(C)(C)NCC(O)COc1ccc(O)cc1` (centres undefined), the inhibition result in test [11] was “Active”. For the same compound, the Ratio ED50 in test [1] turned out to be 3.8. Besides, in test [2], the ED25 was 5 ×10⁻⁸ M. This compound also had an ED50 in test [3] of 1.3 ×10⁻⁸ M.

For the compound `CC(C)(C)NCC(O)COc1ccc(O)c(O)c1` (centres undefined), the Ratio ED50 in test [1] stood at 0.034; in test [12], 310; in test [13], 650; in [17], 22. Moreover, in test [14], the result was Active. Further, the outcome in [15] and in [16] was inactive. Also, the ED25 in [2] stood at 1.1 ×10⁻¹¹ M. Further, in test [3], the ED50 is 3.2 ×10⁻¹⁰ M.
